Measured values as given in PubChem BioAssay AID1963963 (Molecular Pharmacology Branch, DTP, NCI, 2024).

Tested on: 958667-338-R-J2-PDC tumor spheroids viability
Assay: Anticancer human tumor 958667-338-R-J2-PDC patient-derived colon adenocarcinoma cell line growth inhibition [PI3K]
Details: spheroids with HUVEC and MSC; for viability, T/C: stronger effect = lower value
How it was run: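 Tumor cells grown as multi-cell spheroids with HUVEC endothelial cells and MSC fibroblast-like stroma were treated with targeted agents combined with inavolisib, alpelisib, duvelisib or copanlisib. Doses fell in half-log steps from near clinical Cmax, else from 10 microM. Viability was measured.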

[1] = curve of first compound, second compound 0.0316 µM
[2] = curve of first compound, second compound 0.1 µM
[3] = curve of first compound, second compound 0.316 µM
[4] = curve of first compound, second compound 1 µM
[5] = curve of first compound, second compound 3.16 µM
[6] = curve of first compound, second compound 10 µM
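Note: spheroids exposed to compounds for seven days before readout.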

In the case of `Cn1cnc2c(F)c(Nc3ccc(Br)cc3Cl)c(C(=O)NOCCO)cc21` + CC(Nc1ncnc2nc[nH]c12)c1cc2cccc(Cl)c2c(=O)n1-c1ccccc1, the IC50 [1] is reported as 365 nM, the IC50 [2] is reported as 261 nM and the IC50 [3] is reported as 363 nM. For the same molecule, the IC50 [4] was 280 nM, the IC50 [5] was 210 nM and the IC50 [6] was 90.4 nM. It also gave a viability, T/C (second compound 0.0316 µM, first compound 0.00949 µM) of 89.8%, a viability, T/C (second compound 0.0316 µM, first compound 0.03 µM) of 80.5% and a viability, T/C (second compound 0.0316 µM, first compound 0.0949 µM) of 71%. It also gave a viability, T/C (second compound 0.0316 µM, first compound 0.3 µM) of 52.2%, a viability, T/C (second compound 0.0316 µM, first compound 0.949 µM) of 35.5% and a viability, T/C (second compound 0.0316 µM, first compound 3 µM) of 20%. For the same molecule, the viability, T/C (second compound 0.1 µM, first compound 0.00949 µM) was 84.3%, the viability, T/C (second compound 0.1 µM, first compound 0.03 µM) was 80.6% and the viability, T/C (second compound 0.1 µM, first compound 0.0949 µM) was 62.6%. The viability, T/C (second compound 0.1 µM, first compound 0.3 µM) was 49.3%, the viability, T/C (second compound 0.1 µM, first compound 0.949 µM) was 31.3% and the viability, T/C (second compound 0.1 µM, first compound 3 µM) was 20.3%. For the same molecule, the viability, T/C (second compound 0.316 µM, first compound 0.00949 µM) was 80.7%, the viability, T/C (second compound 0.316 µM, first compound 0.03 µM) was 97.4% and the viability, T/C (second compound 0.316 µM, first compound 0.0949 µM) was 74.8%. It also gave a viability, T/C (second compound 0.316 µM, first compound 0.3 µM) of 53.3%, a viability, T/C (second compound 0.316 µM, first compound 0.949 µM) of 32.2% and a viability, T/C (second compound 0.316 µM, first compound 3 µM) of 19.8%. It also gave a viability, T/C (second compound 1 µM, first compound 0.00949 µM) of 73.3%, a viability, T/C (second compound 1 µM, first compound 0.03 µM) of 83.5% and a viability, T/C (second compound 1 µM, first compound 0.0949 µM) of 59.7%. The viability, T/C (second compound 1 µM, first compound 0.3 µM) was 48.2%, the viability, T/C (second compound 1 µM, first compound 0.949 µM) was 33.9% and the viability, T/C (second compound 1 µM, first compound 3 µM) was 17%. For the same molecule, the viability, T/C (second compound 3.16 µM, first compound 0.00949 µM) was 85.3%, the viability, T/C (second compound 3.16 µM, first compound 0.03 µM) was 81.6% and the viability, T/C (second compound 3.16 µM, first compound 0.0949 µM) was 57%. The viability, T/C (second compound 3.16 µM, first compound 0.3 µM) was 44.3%, the viability, T/C (second compound 3.16 µM, first compound 0.949 µM) was 31.3% and the viability, T/C (second compound 3.16 µM, first compound 3 µM) was 13.3%. The viability, T/C (second compound 10 µM, first compound 0.00949 µM) was 78.3%, the viability, T/C (second compound 10 µM, first compound 0.03 µM) was 62.9% and the viability, T/C (second compound 10 µM, first compound 0.0949 µM) was 45.2%. The viability, T/C (second compound 10 µM, first compound 0.3 µM) was 41.7%, the viability, T/C (second compound 10 µM, first compound 0.949 µM) was 20.7% and the viability, T/C (second compound 10 µM, first compound 3 µM) was 10.4%.
`CCN1CCN(Cc2ccc(Nc3ncc(F)c(-c4cc(F)c5nc(C)n(C(C)C)c5c4)n3)nc2)CC1` + CC(Nc1ncnc2nc[nH]c12)c1cc2cccc(Cl)c2c(=O)n1-c1ccccc1 was tested, and the IC50 [1] was > 1000 nM, the IC50 [2] was > 1000 nM and the IC50 [3] was > 1000 nM. For the same molecule, the IC50 [4] was > 1000 nM, the IC50 [5] was > 1000 nM and the IC50 [6] was > 1000 nM. The viability, T/C (second compound 0.0316 µM, first compound 0.00316 µM) was 91.2%, the viability, T/C (second compound 0.0316 µM, first compound 0.01 µM) was 98.2% and the viability, T/C (second compound 0.0316 µM, first compound 0.0316 µM) was 98.8%. The viability, T/C (second compound 0.0316 µM, first compound 0.1 µM) was 76.2%, the viability, T/C (second compound 0.0316 µM, first compound 0.316 µM) was 66.1% and the viability, T/C (second compound 0.0316 µM, first compound 1 µM) was 63.4%. It also gave a viability, T/C (second compound 0.1 µM, first compound 0.00316 µM) of 87.2%, a viability, T/C (second compound 0.1 µM, first compound 0.01 µM) of 88.9% and a viability, T/C (second compound 0.1 µM, first compound 0.0316 µM) of 87.3%. It also gave a viability, T/C (second compound 0.1 µM, first compound 0.1 µM) of 83%, a viability, T/C (second compound 0.1 µM, first compound 0.316 µM) of 68.8% and a viability, T/C (second compound 0.1 µM, first compound 1 µM) of 65.2%. It also gave a viability, T/C (second compound 0.316 µM, first compound 0.00316 µM) of 89.2%, a viability, T/C (second compound 0.316 µM, first compound 0.01 µM) of 97% and a viability, T/C (second compound 0.316 µM, first compound 0.0316 µM) of 82.2%. For the same molecule, the viability, T/C (second compound 0.316 µM, first compound 0.1 µM) was 70.8%, the viability, T/C (second compound 0.316 µM, first compound 0.316 µM) was 71.4% and the viability, T/C (second compound 0.316 µM, first compound 1 µM) was 71.2%. It also gave a viability, T/C (second compound 1 µM, first compound 0.00316 µM) of 102%, a viability, T/C (second compound 1 µM, first compound 0.01 µM) of 71.1% and a viability, T/C (second compound 1 µM, first compound 0.0316 µM) of 86.2%. For the same molecule, the viability, T/C (second compound 1 µM, first compound 0.1 µM) was 66.1%, the viability, T/C (second compound 1 µM, first compound 0.316 µM) was 69% and the viability, T/C (second compound 1 µM, first compound 1 µM) was 66.2%. The viability, T/C (second compound 3.16 µM, first compound 0.00316 µM) was 108%, the viability, T/C (second compound 3.16 µM, first compound 0.01 µM) was 89.7% and the viability, T/C (second compound 3.16 µM, first compound 0.0316 µM) was 84%. The viability, T/C (second compound 3.16 µM, first compound 0.1 µM) was 65.5%, the viability, T/C (second compound 3.16 µM, first compound 0.316 µM) was 64% and the viability, T/C (second compound 3.16 µM, first compound 1 µM) was 55.9%. For the same molecule, the viability, T/C (second compound 10 µM, first compound 0.00316 µM) was 90%, the viability, T/C (second compound 10 µM, first compound 0.01 µM) was 82.8% and the viability, T/C (second compound 10 µM, first compound 0.0316 µM) was 77.8%. For the same molecule, the viability, T/C (second compound 10 µM, first compound 0.1 µM) was 57.8%, the viability, T/C (second compound 10 µM, first compound 0.316 µM) was 57.8% and the viability, T/C (second compound 10 µM, first compound 1 µM) was 53.9%.
For `CC(Nc1ncnc2nc[nH]c12)c1cc2cccc(Cl)c2c(=O)n1-c1ccccc1` (stereo not drawn), the viability, T/C (compound 0.1 µM) was 93.8% [middle of 8 runs], the viability, T/C (compound 1 µM) was 90.8% [middle of 8 runs] and the viability, T/C (compound 10 µM) was 92.9% [middle of 8 runs]. For the same molecule, the IC50 (compound alone, run of 06/13/2023) was > 10000 nM.
